In one experiment the test system is P. aeruginosa 839. Description: Broth microdilution MIC. In kind it is cell-based, Pseudomonas aeruginosa. The note with it: P. aeruginosa 839, ΔMexAB-OprM. Here is the method: (§1) Antibacterial activity of compounds MDN-0057, MDN-0058, MDN-0059 and MDN-0060 was evaluated using the broth microdilution methodology. This method is used to determine minimum inhibitory concentrations (MICs) which are defined as the lowest concentration of an antimicrobial compound that will inhibit the visible growth of a microorganism after overnight incubation.
(§2) In the microbroth dilution assay, microorganisms were selected by streaking bacteria culture from a cryovial into Mueller Hinton II (MHII) agar plate(s) and incubate overnight at 37° C. Thereafter, 3 to 5 characteristic fresh colonies were selected and suspended in 25 mL of MHII broth media for 2 hours shaking at 220 rpm. The 2 hour broth cultures were adjusted to an optical density of 0.111 at 660 nm and then diluted to 1:100 in order to obtain assay inoculums.
(§3) The four compounds evaluated were serially diluted in 100% DMSO with a dilution factor of 2 to provide 10 compound concentrations starting at 8 mg/mL.
(§4) For the assays, 90 μL/well of the appropriated diluted inoculum were mixed with 1.6 μL/well of each compound concentration and 8.4 μL/well of MHII broth media, resulting in an additional dilution of these compounds to yield concentrations in the assay wells from 128 μg/mL to 0.25 μg/mL. After that, the assay plates were read in a Tecan Ultraevolution spectrophotometer at 612 nm for T0 (zero time). Then, the plates were statically incubated at 37° C. for 20 hours. After incubation, they were shaken in a DPC Micromix-5 and read again for Tf (final time). Percentage of growth inhibition was calculated using the following normalization:
(§5) % Inhibition=[1-[(TfSample-T0Sample)−(TfBlank-T0blank)/(TfGrowth-T0Growth)−(TfBlank-T0blank)]×100. • Where, • T0 Sample=the absorbance of the strain growth in the presence of sample measured at zero time (before incubation). • Tf Sample=the absorbance of the strain growth in the presence of sample measured at final time (after incubation) • T0 Growth=the absorbance of the strain growth in the absence of sample measured at zero time (before incubation). • Tf Growth=the absorbance of the strain growth in the absence of sample measured at final time (after incubation). • T0 Blank=the absorbance of the broth medium (blank) measured at zero time (before incubation). • Tf Blank=the absorbance of the broth medium (blank) measured at final time (after incubation).

Another experiment has as its system P. aeruginosa ATCC 27853. Kind of experiment: Broth microdilution MIC. As to conditions: P. aeruginosa ATCC 27853, wild type. The experiment is classed as cell-based, Pseudomonas aeruginosa. As for the experimental part:
as §1, §2, §3, §4, §5
A general note: In broth dilution the organism is exposed to a series of concentrations in liquid medium.

In experiment [1] the test system is RNA synthesis in E. coli acrAB::Tn903. Description: Macromolecular labeling assay, RNA synthesis. As to conditions: at up to 8-fold the MIC, [3H] uridine. The experiment is classed as cell-based, Escherichia coli. As for the experimental part:
(§6) The macromolecular synthesis assay, in which the inhibition of the intracellular building blocks of macromolecules are measured, provides guidance for understanding the broad MOA of compounds
(§7) The inhibitory effect on synthesis of macromolecules in the lipid, cell wall, DNA, RNA and protein synthesis pathways was determined in growing cells of E. coli acrAB::Tn903. Cells were grown at 35° C. overnight on Trypticase Soy agar, and this culture was used to inoculate 15 ml of Mueller Hinton broth II (MHB). The culture was grown to early exponential growth phase (OD600=0.2 to 0.3) while incubating in a shaker at 35° C. and 200 rpm.
(§8) Cells in early exponential phase were exposed to MDN-0057, and their incorporation of radioactive precursors in each pathway was determined. Rifampicin, Ciprofloxacin, Tetracycline, Imipenem and Irgasan were included as positive controls for inhibition of RNA, DNA, protein, cell wall and lipid synthesis, respectively. (FIG. 1)
(§9) DNA, RNA, and protein synthesis: When cells reached early exponential phase, 100 μL of culture was added to triplicate wells containing various concentrations of MDN-0057 or control antibiotics (2.5 μL) at 40× the final concentration in 100% DMSO or deionized water (dH2O). […] After washing five times with 200 μL per well of cold 5% TCA, the filters were allowed to dry, and then counted using a Packard Top Count microplate scintillation counter.

For experiment [2], the system named is DNA synthesis in E. coli acrAB::Tn903. Kind of experiment: Macromolecular labeling assay, DNA synthesis. As to conditions: at up to 8-fold the MIC, [3H] thymidine. The experiment is classed as cell-based, Escherichia coli. Here is the method:
as §6, §7, §8, §9

Experiment [3] relates to protein synthesis in E. coli acrAB::Tn903. Description: Macromolecular labeling assay, protein synthesis. In kind it is cell-based, Escherichia coli. As to conditions: at up to 8-fold the MIC, [3H] leucine. As for the experimental part:
as §6, §7, §8, §9

One may read the MIC as the lowest concentration found to suppress growth. Higher therefore signals a less susceptible organism. Turning to `[C-]#[N+]C(=C)C(Cc1ccc(OC)cc1)([N+]#[C-])C1CC(O)CCC1OC(=O)CO` (centres unmarked) [MDN-0057], the MIC in the experiment on P. aeruginosa 839 was in the range of 1 to 2 µg/mL; in the experiment with P. aeruginosa ATCC 27853, 2 to 8 µg/mL. Also, the “Inhibition of RNA synthesis” value in experiment [1] is “Little or no inhibition”. For the same compound, the “Inhibition of DNA synthesis” value in experiment [2] is listed as “Little or no inhibition”. For the same compound, the “Inhibition of protein synthesis” value in experiment [3] is “Little or no inhibition”.

Values taken from patent US20160185717A1, “COMPOUNDS WITH ANTIBACTERIAL ACTIVITY” (FUNDACIÓN MEDINA. CENTRO DE EXCELENCIA EN INVESTIGACIÓN DE …, priority 2013, published 2016).
